Target: T1, TRIP13 (Homo sapiens, UniProt Q15645)
T1 construct: full length, 1-432 aa, N-GST-tagged
T1 sequence (Q15645 1-432): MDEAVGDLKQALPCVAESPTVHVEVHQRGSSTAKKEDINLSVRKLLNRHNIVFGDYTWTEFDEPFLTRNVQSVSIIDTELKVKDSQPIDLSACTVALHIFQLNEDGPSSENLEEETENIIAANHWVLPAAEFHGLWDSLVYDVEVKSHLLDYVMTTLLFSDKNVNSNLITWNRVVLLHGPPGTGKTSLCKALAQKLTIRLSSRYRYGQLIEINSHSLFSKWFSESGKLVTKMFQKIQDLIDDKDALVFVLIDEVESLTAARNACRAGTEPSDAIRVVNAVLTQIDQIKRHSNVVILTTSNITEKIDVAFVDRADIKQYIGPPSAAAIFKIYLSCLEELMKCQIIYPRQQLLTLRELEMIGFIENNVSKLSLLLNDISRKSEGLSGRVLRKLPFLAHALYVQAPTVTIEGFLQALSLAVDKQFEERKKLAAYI
Assay: ADP-Glo ATPase dose-response ([…] TRIP13, […] ATP) with ADP counter-screen; also CETSA in HeLa cells
Assay type: biochemical

IC50: 5.5 ± 1 µM
Structure (SMILES): COc1cc2c(Oc3ccc4[nH]c(C)cc4c3F)ccnc2cc1OCC1(N)CC1 [anlotinib]

From article PMC12224672, “Advancing the development of TRIP13 inhibitors: A high-throughput screening approach” (SLAS discovery : advancing life sciences R & D, 2025)
